Like-named read-outs stand apart in the source and are kept apart here.
Key:
Assay type in all cases: in vivo, Kunming mice
HCMV infected mice [1] = experiment: IL-2 level in serum of HCMV infected mice (ELISA kit); settings: for IL-2 level compared with the positive drug control group (in words): ganciclovir 45.5 mg/kg/d as comparator; for IL-2 concentration: 21 days
Protocol: (§1) The mice were injected with HCMV10^−3 (0.1 ml/mouse) through the caudal vein of mouse tails; 0.9% normal saline is injected to the normal control group, 0.1 ml/piece; and intragastric administration is started according to the determined dosage on the second day of infection, with 21 days of medication.
Selecting six mice in each group randomly for sampling, 40 min later after the last administration, picking eyeballs to take blood, and collecting the blood by a centrifugal tube Performing high-speed centrifugation for 5 min at 3000 r/min after blood coagulation, and taking the serum. The IL-2 in the serum is measured according to the manual of an ELISA kit.
1L-2, namely interleukin-2, is also named T cell growth factor (TCGF), is a cell factor with wide biological activity, which is generated by activated CD4+Th1 cells, and can promote the proliferation of Th0 and CTL, thus being an important factor for regulating and controlling immune responses.

HCMV infected mice [2] = settings: for Level of serum hemolysin antibodies compared with the positive drug control group (in words): HCMV infected mice, ganciclovir 45.5 mg/kg/d as comparator; for Hemolysin (OD value): serum of HCMV infected mice, 540 nm, 21 days
Protocol: as §1
40 min later after the last administration, picking eyeballs to take blood, collecting serum, diluting the serum for 100 times with normal saline, uniformly mixing 1 mL of the diluted serum, 0.5 mL of 5% chicken erythrocyte suspension and 0.5 mL of 10% complement (guinea pig serum), incubating for 30 min In 37° C. incubator, setting 0° C. refrigerator for 30 min to stop the reaction. Centrifugating, taking the supernatant, and then measuring the optical density (OD value) at 540 nm by spectrophotometer.

HCMV infected mice [3] = experiment: Survival rate and weight of HCMV infected mice; settings: for Toxic symptoms, death and weight growth of treated HCMV infected mice (in words): 21 days of intragastric administration, compared with model group; for Average animal weight (g) Termination of treatment: HCMV infected mice; for Average animal weight (g) Termination of treatment / Animal number (n) Termination of treatment: 21 days; for Animal number (n) Termination of treatment: surviving of 10 HCMV infected mice
Protocol: 1.3 Virus standard strain HCMVADI69 and the proliferation of species are introduced in October 1999 from Virus Seed Room of Virus Institute in Chinese Academy of Preventive Medicine. […] HEL cultural supernatant reaching +++−++++ in the cell lesions is discarded and lightly washed for 3 times by PBS; double distilled water is added; freeze-thawing is performed for 3 times at −20° C.; vigorous blowing and beating are performed; 10,000 r/min centrifugation is performed at 4° C. for 20 min; and the supernatant is collected to obtain the standard virus strain.
as §1
(§2) During the experiment. Animals were weighed and the thymus and spleen were weighed on the 21st day of administration, and their indices (thymus index, spleen index, weight of thymus and spleen organs per 10 g body weight (mg)) were measured.
Recording the number of dead animals in the experimental process.
All the mice are subjected to the medicines continuously for 21 days in the whole experimental process.

HCMV infected mice [4] = experiment: Spleen and thymus gland indexes of HCMV infected mice; settings: for Effect on weight of the immune organs of HCMV infected mice (in words): thymus glands and spleens; for Effect on weight of the immune organs of HCMV infected mice (in words) / Spleen indexes / Thymus gland indexes: day 21
Protocol: as §1, §2
Thymus glands and spleens are important immune organs, with the organ indexes reflecting the strength of immune functions of organisms to a certain degree. The thymus glands have the main functions of generating T-lymphocytes and secreting thymosin, and mainly take part in cellular immunity; and abundant lymphocytes and macrophages are contained in the spleens. The weight of the thymus glands and the spleens is related to functions thereof as well as the quantity of immune cells therein, and the height depends on the proliferation degree of the lymphocytes therein.

[5] = high-dosage group 0.3 mg/kg/d intragastric
[6] = low-dosage group 0.012 mg/kg/d intragastric
[7] = medium-dosage group 0.06 mg/kg/d intragastric
[8] = HCMV infected mice, high-dosage group 0.3 mg/kg/d intragastric
[9] = HCMV infected mice, low-dosage group 0.012 mg/kg/d intragastric
[10] = HCMV infected mice, medium-dosage group 0.06 mg/kg/d intragastric

Compound: 20(R)-ginsenoside Rg3 8-N-butyrate [Ginsenoside rg3 derivatives]
- IL-2 level compared with the model group (in words) (HCMV infected mice [1]): higher than those of the model group
- IL-2 level compared with the positive drug control group (in words) (HCMV infected mice [1]): superior to that of the positive drug control group
- IL-2 concentration (HCMV infected mice [1]; [5]): 29.32 ± 4.09 pg/mL
- IL-2 concentration (HCMV infected mice [1]; [6]): 27.99 ± 5.38 pg/mL
- IL-2 concentration (HCMV infected mice [1]; [7]): 28.62 ± 4.21 pg/mL
- Level of serum hemolysin antibodies compared with the positive drug control group (in words) (HCMV infected mice [2]): superior to that of the positive drug control group
- Hemolysin (OD value) (HCMV infected mice [2]; [5]): 0.19 ± 0.11 OD value
- Hemolysin (OD value) (HCMV infected mice [2]; [6]): 0.17 ± 0.08 OD value
- Hemolysin (OD value) (HCMV infected mice [2]; [7]): 0.18 ± 0.07 OD value
- Toxic symptoms, death and weight growth of treated HCMV infected mice (in words) (HCMV infected mice [3]): mild toxic symptom, less death and good weight growth
- Average animal weight (g) Termination of treatment (HCMV infected mice [3]; [5]): 27.7 ± 1.84 g
- Average animal weight (g) Termination of treatment (HCMV infected mice [3]; [6]): 26.4 ± 0.18 g
- Average animal weight (g) Termination of treatment (HCMV infected mice [3]; [7]): 27.1 ± 0.49 g
- Animal number (n) Termination of treatment (HCMV infected mice [3]; [5]): 9
- Animal number (n) Termination of treatment (HCMV infected mice [3]; [6]): 6
- Animal number (n) Termination of treatment (HCMV infected mice [3]; [7]): 7
- Effect on weight of the immune organs of HCMV infected mice (in words) (HCMV infected mice [4]): obvious weight increasing effect

Compound: CC(C)=CCC[C@](C)(O)[C@H]1CC[C@]2(C)[C@@H]1[C@H](O)C[C@@H]1[C@@]3(C)CC[C@H](O[C@@H]4O[C@H](CO)[C@@H](O)[C@H](O)[C@H]4O[C@@H]4O[C@H](CO)[C@@H](O)[C@H](O)[C@H]4O)C(C)(C)[C@@H]3CC[C@]12C [Ginsenoside rg3, 20(R)-ginsenoside Rg3]
- IL-2 level compared with the model group (in words) (HCMV infected mice [1]): higher than those of the model group
- IL-2 level compared with the positive drug control group (in words) (HCMV infected mice [1]): superior to that of the positive drug control group
- IL-2 concentration (HCMV infected mice [1]; [5]): 28.64 ± 4.66 pg/mL
- IL-2 concentration (HCMV infected mice [1]; [6]): 27.02 ± 6.39 pg/mL
- IL-2 concentration (HCMV infected mice [1]; [7]): 27.19 ± 5.60 pg/mL
- Level of serum hemolysin antibodies compared with the positive drug control group (in words) (HCMV infected mice [2]): superior to that of the positive drug control group
- Hemolysin (OD value) (HCMV infected mice [2]; [5]): 0.18 ± 0.03 OD value
- Hemolysin (OD value) (HCMV infected mice [2]; [6]): 0.15 ± 0.08 OD value
- Hemolysin (OD value) (HCMV infected mice [2]; [7]): 0.16 ± 0.05 OD value
- Toxic symptoms, death and weight growth of treated HCMV infected mice (in words) (HCMV infected mice [3]): mild toxic symptom, less death and good weight growth
- Average animal weight (g) Termination of treatment (HCMV infected mice [3]; [5]): 26.6 ± 1.83 g
- Average animal weight (g) Termination of treatment (HCMV infected mice [3]; [6]): 25.1 ± 0.11 g
- Average animal weight (g) Termination of treatment (HCMV infected mice [3]; [7]): 25.8 ± 0.54 g
- Animal number (n) Termination of treatment (HCMV infected mice [3]; [5]): 8
- Animal number (n) Termination of treatment (HCMV infected mice [3]; [6]): 6
- Animal number (n) Termination of treatment (HCMV infected mice [3]; [7]): 6
- Spleen indexes and thymus gland indexes compared with the model group (in words) (HCMV infected mice [4]; HCMV infected mice): significantly different from those of the model group
- Spleen indexes (HCMV infected mice [4]; [8]): 0.061 ± 0.021
- Thymus gland indexes (HCMV infected mice [4]; [8]): 0.031 ± 0.009
- Spleen indexes (HCMV infected mice [4]; [9]): 0.056 ± 0.045
- Thymus gland indexes (HCMV infected mice [4]; [9]): 0.027 ± 0.011
- Spleen indexes (HCMV infected mice [4]; [10]): 0.057 ± 0.013
- Thymus gland indexes (HCMV infected mice [4]; [10]): 0.029 ± 0.021
- Effect on weight of the immune organs of HCMV infected mice (in words) (HCMV infected mice [4]): obvious weight increasing effect

Compound: Nc1nc(O)c2ncn(COC(CO)CO)c2n1 [Positive drug control group, ganciclovir, reference compound]
- IL-2 concentration (HCMV infected mice [1]; ganciclovir 45.5 mg/kg/d): 24.54 ± 2.66 pg/mL
- Hemolysin (OD value) (HCMV infected mice [2]; ganciclovir 45.5 mg/kg/d): 0.11 ± 0.04 OD value
- Average animal weight (g) Termination of treatment (HCMV infected mice [3]; ganciclovir 45.5 mg/kg/d): 26.9 ± 3.97 g
- Survival number, weight growth and symptom expression compared with the test drug groups (in words) (HCMV infected mice [3]; ganciclovir 45.5 mg/kg/d): totally approximate to those of the large-dosage groups
- Animal number (n) Termination of treatment (HCMV infected mice [3]; ganciclovir 45.5 mg/kg/d): 8

— patent publication US10675317B2, “Use of ginseng extract, ginsenoside and ginsenoside derivative in the preparation of medicine or health care product for treating cytomegalovirus infection disorders” (priority 2015, dated 2020)
